Measurements taken from patent US20220193209A1, “COMPOSITIONS AND METHODS FOR REACTIVATING LATENT IMMUNODEFICIENCY VIRUS AND/OR TREATING IMMUNODEFICIENCY VIRUS INFECTION” (The J. David Gladstone institutes, a testamentary trust …, priority 2019, published 2022).

Key:
FOXO4 = target: T1, FOXO4 (Homo sapiens, UniProt P98177); assay: Cellular Thermal Shift Assay (CETSA) in K562 cells, FOXO4; assay type: binding; conditions: 1 μM
T1 construct: performed against the FOXO isoforms expressed in K562 cells; endogenous in cells; host or cells: K562
Protocol: (§1) K562 cells (ATCC) were maintained in appropriate volume of RPMI medium supplemented with 10% fetal bovine serum (Serum Plus—II, Sigma MO, USA), 100 units/mL penicillin and 100 […] (Corning, VA, USA). Short-term passages (<15) were used for all experiments. For CETSA, K562 cell were freshly seeded the day before the experiment. The day of experiment, equal numbers of cells were counted by Moxi Mini automated cell counter (Orflo) and 0.6×10^6 cells per data point were seeded in T-25 cell culture flasks (VWR, PA, USA) in appropriate volume of culture medium. […] The supernatants were transferred to new microcentrifuge tubes and analyzed by SDS-PAGE followed by immunoblotting analysis. […] Immunoblotting results were subjected to densitometric analysis (Image J) and melting temperatures of FOXO1, FOXO3 and FOXO4 were determined by Prism 7 (GraphPad) using nonlinear least-squares regression fit to Y=100/(1+10^(Log IC50−X)*H), where H=Hill slope (variable). The viability of the cells was assessed in triplicate by trypan blue exclusion.
Whether the effect of AS1842856 was mediated by its interaction with FOXO1 was confirmed. […] AS1842856-FOXO binding was considered ‘positive’ if there was a significant change in the thermal profile of the protein between the presence and the absence of the drug assessed by western blot (FIG. 2, Panel A). […]

FOXO3 = target: T2, FOXO3 (Homo sapiens, UniProt O43524); assay: Cellular Thermal Shift Assay (CETSA) in K562 cells, FOXO3; assay type: binding; conditions: 1 μM
T2 construct: performed against the FOXO isoforms expressed in K562 cells; endogenous in cells; host or cells: K562
Protocol: as §1, with “medium. Cells were exposed to […] AS1842856 or equal volume DMSO for 3 hours in an incubator with 5% CO2 and 37° C.” for “medium.”, “exclusion. […]” for “exclusion.”
Briefly, K562 cells were treated with increasing concentrations of the FOXO1 inhibitor AS1842856 just after HIVGKO infection. After 3-4 days, the percentage of latent cells and productive cells were quantified by FACS. […]

T1 sequence (P98177 whole entry, canonical isoform): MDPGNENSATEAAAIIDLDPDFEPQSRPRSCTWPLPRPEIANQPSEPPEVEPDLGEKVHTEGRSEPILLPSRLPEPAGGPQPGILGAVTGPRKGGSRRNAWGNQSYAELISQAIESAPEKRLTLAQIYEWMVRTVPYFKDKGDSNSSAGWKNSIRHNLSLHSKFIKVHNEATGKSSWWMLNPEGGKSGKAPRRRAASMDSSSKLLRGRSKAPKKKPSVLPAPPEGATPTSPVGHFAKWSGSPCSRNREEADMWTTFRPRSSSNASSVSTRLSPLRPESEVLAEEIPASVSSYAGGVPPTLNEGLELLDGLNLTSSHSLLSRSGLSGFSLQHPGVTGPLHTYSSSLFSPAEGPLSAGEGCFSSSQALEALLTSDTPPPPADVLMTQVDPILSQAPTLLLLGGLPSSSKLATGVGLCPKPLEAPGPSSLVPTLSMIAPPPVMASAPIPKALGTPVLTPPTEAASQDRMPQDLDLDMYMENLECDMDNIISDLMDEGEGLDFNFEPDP
T2 sequence (O43524 whole entry, canonical isoform): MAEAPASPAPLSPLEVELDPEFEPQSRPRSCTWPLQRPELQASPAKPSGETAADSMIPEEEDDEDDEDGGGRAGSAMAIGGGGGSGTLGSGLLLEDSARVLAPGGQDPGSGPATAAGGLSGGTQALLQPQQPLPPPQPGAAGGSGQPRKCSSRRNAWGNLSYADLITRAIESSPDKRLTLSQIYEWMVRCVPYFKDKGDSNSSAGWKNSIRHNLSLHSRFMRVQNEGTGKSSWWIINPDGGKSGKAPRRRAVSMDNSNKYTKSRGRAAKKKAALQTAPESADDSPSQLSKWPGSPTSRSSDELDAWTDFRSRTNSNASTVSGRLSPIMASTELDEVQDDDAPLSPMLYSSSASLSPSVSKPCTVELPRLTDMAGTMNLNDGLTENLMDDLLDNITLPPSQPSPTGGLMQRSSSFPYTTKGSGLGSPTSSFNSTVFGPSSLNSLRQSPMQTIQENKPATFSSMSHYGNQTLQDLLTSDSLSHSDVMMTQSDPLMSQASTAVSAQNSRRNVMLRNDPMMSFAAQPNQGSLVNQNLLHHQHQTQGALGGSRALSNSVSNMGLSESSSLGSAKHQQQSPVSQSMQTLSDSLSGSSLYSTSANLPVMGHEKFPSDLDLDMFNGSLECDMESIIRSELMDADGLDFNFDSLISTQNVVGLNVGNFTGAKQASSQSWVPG

Structure (SMILES): CCn1cc(C(=O)O)c(=O)c2c(N)c(F)c(NC3CCCCC3)cc21 [AS1842856, 5-amino-7-(cyclohexylamino)-1-ethyl-6-fluoro-4-oxo-1,4-dihydro-quinoline-3-carboxylic acid]
- change in FOXO4 melting curve (FOXO4): no changes
- change in FOXO3 melting curve (FOXO3): no changes
